Experimental data as given in ChEMBL document CHEMBL1201862, “PubChem BioAssay data set” (2004).
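Protocol summary: plate cells (96-well), add compound at 5 concentrations, incubate 48 h, interpolate endpoints linearly. Here, GI50 denotes the concentration required for 50% inhibition of growth.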 Active and inactive are the calls of the source. No stated cut-off is given here; in the data, active = GI50 up to about 1.1 µM and inactive = higher.

How the values were obtained:
Experiment in all cases: NCI anticancer screen, dose series, 48 h
SK-MEL-28 = test system: SK-MEL-28
SR = test system: SR
SNB-75 = test system: SNB-75
HCT-15 = test system: HCT-15
UO-31 = test system: UO-31
NCI-H226 = test system: NCI-H226
SW-620 = test system: SW-620
SK-MEL-5 = test system: SK-MEL-5
SF-268 = test system: SF-268
A549 = test system: A549
CCRF-CEM = test system: CCRF-CEM
HOP-92 = test system: HOP-92
OVCAR-8 = test system: OVCAR-8
OVCAR-5 = test system: OVCAR-5
HCT-116 = test system: HCT-116

Row | Compound | GI50 (SK-MEL-28) | GI50 (SR) | GI50 (SNB-75) | GI50 (HCT-15) [µM] | GI50 (UO-31) | GI50 (NCI-H226) | GI50 (SW-620) | GI50 (SK-MEL-5) | GI50 (SF-268) | GI50 (A549) | GI50 (CCRF-CEM) | GI50 (HOP-92) | GI50 (OVCAR-8) | GI50 (OVCAR-5) | GI50 (HCT-116)
1 | CCCCCCCSCC1C(=O)C23C(O)C1CCC2C12COC3(O)C(O)C1C(C)(C)CCC2O (configuration not stated) | 9.51 µM (inactive) | 4.92 µM (inactive) | 21.2 µM (inactive) | 9.02 | 11.2 µM (inactive) | 17.7 µM (inactive) | 0.881 µM (active) | 12.1 µM (inactive) | 10.8 µM (inactive) | 18.7 µM (inactive) | 2.75 µM (inactive) | 13.9 µM (inactive) | 16.4 µM (inactive) | 17.5 µM (inactive) | 5.5 µM (inactive)
2 | CCCC/C=C1\CCC(C)(CN(C)C)C1=O (configuration not stated) | > 100 µM (inactive) | > 100 µM (inactive) | – | > 100 | > 100 µM (inactive) | – | > 100 µM (inactive) | > 100 µM (inactive) | > 100 µM (inactive) | > 100 µM (inactive) | > 100 µM (inactive) | > 100 µM (inactive) | > 100 µM (inactive) | > 100 µM (inactive) | > 100 µM (inactive)
3 | COc1ccc(/N=C/c2ccc(N(CCC#N)S(=O)(=O)c3ccccc3)cc2)cc1 | > 100 µM (inactive) | > 100 µM (inactive) | > 100 µM (inactive) | > 100 | > 100 µM (inactive) | > 100 µM (inactive) | > 100 µM (inactive) | > 100 µM (inactive) | > 100 µM (inactive) | > 100 µM (inactive) | > 100 µM (inactive) | > 100 µM (inactive) | > 100 µM (inactive) | > 100 µM (inactive) | > 100 µM (inactive)
4 | CCCCCCCCCCCCCCCCOC(=O)c1cc(O)cc(C(=O)OCCCCCCCCCCCCCCCC)c1 | > 100 µM (inactive) | – | > 100 µM (inactive) | > 100 | > 100 µM (inactive) | > 100 µM (inactive) | > 100 µM (inactive) | > 100 µM (inactive) | > 100 µM (inactive) | > 100 µM (inactive) | > 100 µM (inactive) | > 100 µM (inactive) | > 100 µM (inactive) | > 100 µM (inactive) | > 100 µM (inactive)
5 | CC(C)S(=O)(=O)ON1C(=O)c2ccc([N+](=O)[O-])cc2C1=O | > 100 µM (inactive) | > 100 µM (inactive) | > 100 µM (inactive) | > 100 | > 100 µM (inactive) | > 100 µM (inactive) | > 100 µM (inactive) | > 100 µM (inactive) | > 100 µM (inactive) | > 100 µM (inactive) | > 100 µM (inactive) | 41.9 µM (inactive) | > 100 µM (inactive) | > 100 µM (inactive) | > 100 µM (inactive)
6 | CCOc1ccc(/N=C/c2c3ccccc3nc3ccccc23)cc1 | > 100 µM (inactive) | – | 44.8 µM (inactive) | 25.1 | 98.6 µM (inactive) | > 100 µM (inactive) | 31.3 µM (inactive) | 38.9 µM (inactive) | 71 µM (inactive) | 74.6 µM (inactive) | 3.59 µM (inactive) | > 100 µM (inactive) | 65.3 µM (inactive) | > 10 µM (inactive) | –
7 | O=C1C2C3C=C4c5ccccc5N(c5ccccc5)C4(C2C(=O)N1c1ccc(Br)cc1)[C@H]1C(=O)N(c2ccc(Br)cc2)C(=O)[C@@H]31 (some centres not stated) | – | 38.9 µM (inactive) | > 100 µM (inactive) | > 100 | > 100 µM (inactive) | > 100 µM (inactive) | > 100 µM (inactive) | > 100 µM (inactive) | – | > 100 µM (inactive) | > 100 µM (inactive) | 84.3 µM (inactive) | > 100 µM (inactive) | > 100 µM (inactive) | > 100 µM (inactive)
8 | Cc1c(C)c2cc3c(=O)ccoc3c(C)c2oc1=O | > 100 µM (inactive) | – | 15 µM (inactive) | > 100 | 24.4 µM (inactive) | 29.8 µM (inactive) | > 100 µM (inactive) | > 100 µM (inactive) | 71.3 µM (inactive) | > 100 µM (inactive) | 44 µM (inactive) | – | > 100 µM (inactive) | > 100 µM (inactive) | –
9 | COC(=O)C12C34C=CC5(CCC6(C=CC1(CC3)O6)C52C(=O)OC)O4 (configuration not stated) | > 100 µM (inactive) | > 100 µM (inactive) | – | – | – | > 100 µM (inactive) | > 100 µM (inactive) | – | > 100 µM (inactive) | > 100 µM (inactive) | > 100 µM (inactive) | > 100 µM (inactive) | > 100 µM (inactive) | > 100 µM (inactive) | > 100 µM (inactive)
10 | C/C(=N/NC(=O)C(N)=O)C(CC(C(=O)Nc1ccccc1C)/C(C)=N\NC(=O)C(N)=O)C(=O)Nc1ccccc1C (configuration not stated) | > 100 µM (inactive) | – | > 100 µM (inactive) | – | 70.5 µM (inactive) | > 100 µM (inactive) | > 100 µM (inactive) | > 100 µM (inactive) | > 100 µM (inactive) | > 100 µM (inactive) | > 100 µM (inactive) | 47.1 µM (inactive) | > 100 µM (inactive) | > 100 µM (inactive) | –
11 | COc1ccc2c(c1)CC[C@@H]1C2CC[C@]2(C)C(=O)NC(=O)CC12 (some centres not stated) | – | – | – | > 100 | 97.7 µM (inactive) | 67.5 µM (inactive) | > 100 µM (inactive) | 78.3 µM (inactive) | > 100 µM (inactive) | > 100 µM (inactive) | 88.3 µM (inactive) | > 100 µM (inactive) | > 100 µM (inactive) | > 100 µM (inactive) | > 100 µM (inactive)
12 | COC(=O)N/N=C(\C)c1c(O)cc(C)oc1=O | 50.8 µM (inactive) | 37.2 µM (inactive) | > 100 µM (inactive) | 17 | 40.1 µM (inactive) | > 100 µM (inactive) | 25.9 µM (inactive) | 50.8 µM (inactive) | 22.1 µM (inactive) | 29 µM (inactive) | 46 µM (inactive) | > 100 µM (inactive) | 59.3 µM (inactive) | – | 98.4 µM (inactive)
13 | COC(=O)[C@@]12OC[C@]34C([C@@H](O)C1O)[C@@]1(C)CC(=O)C(OC(=O)/C=C(/c5ccccc5)C(F)(F)F)=C(C)C1C[C@H]3OC(=O)[C@H](O)[C@H]42 (some centres not stated) | 5.31 µM (inactive) | 3.29 µM (inactive) | 4.01 µM (inactive) | 23.8 | 35.7 µM (inactive) | 6.5 µM (inactive) | – | 4.83 µM (inactive) | 11.2 µM (inactive) | 16.5 µM (inactive) | 8.71 µM (inactive) | 5.86 µM (inactive) | 12.1 µM (inactive) | 21.8 µM (inactive) | 8.63 µM (inactive)
14 | Cc1cc(C)c(C(=O)/C(=C/c2ccccc2)c2ccccc2)c(C)c1 | > 100 µM (inactive) | 36.6 µM (inactive) | 82.2 µM (inactive) | 20.6 | 56.8 µM (inactive) | 50.9 µM (inactive) | 60 µM (inactive) | > 100 µM (inactive) | 76.2 µM (inactive) | 38.8 µM (inactive) | 35.1 µM (inactive) | 32.8 µM (inactive) | 46.5 µM (inactive) | – | 34.8 µM (inactive)
